Test results: patent US20240425500A1 (priority 2021, published 2024)

How the values were obtained:
Plasmopara viticola = assay: whole plant or invertebrate; format: in vivo; conditions: foliar, read-out: control of Plasmopara viticola compared to untreated control
Pythium ultimum = Pythium ultimum / liquid culture (seedling damping off); format: cell-based; conditions: Globisporangium ultimum, liquid culture in PDB, 24 °C, 2-3 days after application, read-out: control of Pythium ultimum (inhibition of growth, photometric) compared to untreated control
Procedure: Pythium ultimum/Liquid Culture (Seedling Damping Off):
Mycelia fragments and oospores of a newly grown liquid culture of the fungus are directly mixed into nutrient broth (PDB potato dextrose broth). After placing a (DMSO) solution of test compound into a microtiter plate (96-well format), the nutrient broth containing the fungal mycelia/spore mixture is added. The test plates are incubated at 24° C. and the inhibition of growth is determined photometrically 2-3 days after application.

Phytophthora infestans = assay: whole plant or invertebrate; format: in vivo; conditions: in Solanum lycopersicum, foliar, read-out: control of Phytophthora infestans compared to untreated control

CC(=O)Nc1ccc(-c2cnc3ccc(C(=O)N(C)c4ccc(Cl)cc4)cn23)cc1 [Compound 1, 3-(4-acetamidophenyl)-N-(4-chlorophenyl)-N-methyl-imidazo[1,2-a]pyridine-6-carboxamide]
pest or weed control at 200 ppm (Plasmopara viticola): ≥ 80% | inhibition at 20 ppm (Pythium ultimum): ≥ 80%

COC(=O)Nc1ccc(-c2cnc3ccc(C(=O)N(C)c4cccc(OC(F)F)c4)cn23)cc1 [Compound 9, methyl N-[4-[6-[[3-(difluoromethoxy)phenyl]-methyl-carbamoyl]imidazo[1,2-a]pyridin-3-yl]phenyl]carbamate]
pest or weed control at 200 ppm (Plasmopara viticola): ≥ 80% | inhibition at 20 ppm (Pythium ultimum): ≥ 80%

CCc1cccc(N(C)C(=O)c2ccc3ncc(-c4ccc(NC(=O)OC)cc4)n3c2)c1 [Compound 10, methyl N-[4-[6-[(3-ethylphenyl)-methyl-carbamoyl]imidazo[1,2-a]pyridin-3-yl]phenyl]carbamate]
inhibition at 20 ppm (Pythium ultimum): ≥ 80% | pest or weed control at 200 ppm (Phytophthora infestans): ≥ 80%

C#Cc1cccc(N(C)C(=O)c2ccc3ncc(-c4ccc(NC(=O)OC)nc4)n3c2)c1 [Compound 43, methyl N-[5-[6-[(3-ethynylphenyl)-methyl-carbamoyl]imidazo[1,2-a]pyridin-3-yl]-2-pyridyl]carbamate]
inhibition at 20 ppm (Pythium ultimum): ≥ 80% | pest or weed control at 200 ppm (Phytophthora infestans): ≥ 80%

COC(=O)Nc1ccc(-c2cnc3ccc(C(=O)N(C)c4cccc(F)c4)cn23)cn1 [Compound 52, methyl N-[5-[6-[(3-fluorophenyl)-methyl-carbamoyl]imidazo[1,2-a]pyridin-3-yl]-2-pyridyl]carbamate]
inhibition at 20 ppm (Pythium ultimum): ≥ 80% | pest or weed control at 200 ppm (Phytophthora infestans): ≥ 80%

COC(=O)Nc1ccc(-c2cnc3ccc(C(=O)N(C)c4cncc(OC)c4)cn23)cn1 [Compound 55, methyl N-[5-[6-[(5-methoxy-3-pyridyl)-methyl-carbamoyl]imidazo[1,2-a]pyridin-3-yl]-2-pyridyl]carbamate]
inhibition at 20 ppm (Pythium ultimum): ≥ 80% | pest or weed control at 200 ppm (Phytophthora infestans): ≥ 80%

COC(=O)Nc1ccc(-c2cnc3ccc(C(=O)N(C)c4cccc(Cl)c4)cn23)cn1 [Compound 62, methyl N-[5-[6-[(3-chlorophenyl)-methyl-carbamoyl]imidazo[1,2-a]pyridin-3-yl]-2-pyridyl]carbamate]
inhibition at 20 ppm (Pythium ultimum): ≥ 80% | pest or weed control at 200 ppm (Phytophthora infestans): ≥ 80%

COC(=O)Nc1ccc(-c2cnc3ccc(C(=O)N(C)c4ccnc(F)c4)cn23)cn1 [Compound 71, methyl N-[5-[6-[(2-fluoro-4-pyridyl)-methyl-carbamoyl]imidazo[1,2-a]pyridin-3-yl]-2-pyridyl]carbamate]
inhibition at 20 ppm (Pythium ultimum): ≥ 80% | pest or weed control at 200 ppm (Phytophthora infestans): ≥ 80%

COCCOc1cc(N(C)C(=O)c2ccc3ncc(-c4ccc(NC(=O)OC)nc4)n3c2)ccc1F [Compound 77, methyl N-[5-[6-[[4-fluoro-3-(2-methoxyethoxy)phenyl]-methyl-carbamoyl]imidazo[1,2-a]pyridin-3-yl]-2-pyridyl]carbamate]
inhibition at 20 ppm (Pythium ultimum): ≥ 80% | pest or weed control at 200 ppm (Phytophthora infestans): ≥ 80%

CNC(=O)Nc1ccc(-c2cnc3ccc(C(=O)N(C)c4ccc(F)c(OC)c4)cn23)cc1 [Compound 80, N-(4-fluoro-3-methoxy-phenyl)-N-methyl-3-[4-(methylcarbamoyl-amino)phenyl]imidazo[1,2-a]pyridine-6-carboxamide]
inhibition at 20 ppm (Pythium ultimum): ≥ 80% | pest or weed control at 200 ppm (Phytophthora infestans): ≥ 80%

CNC(=O)Nc1ccc(-c2cnc3ccc(C(=O)N(C)c4ccc(F)c(OC)c4)cn23)cn1 [Compound 81, N-(4-fluoro-3-methoxy-phenyl)-N-methyl-3-[6-(methylcarbamoyl-amino)-3-pyridyl]imidazo[1,2-a]pyridine-6-carboxamide]
inhibition at 20 ppm (Pythium ultimum): ≥ 80% | pest or weed control at 200 ppm (Phytophthora infestans): ≥ 80%

COC(=O)Nc1ccc(-c2cnc3c(C4CC4)cc(C(=O)N(C)c4ccc(F)cc4)cn23)cn1 [Compound 83, methyl N-[5-[8-cyclopropyl-6-[(4-fluorophenyl)-methyl-carbamoyl]imidazo[1,2-a]pyridin-3-yl]-2-pyridyl]carbamate]
inhibition at 20 ppm (Pythium ultimum): ≥ 80% | pest or weed control at 200 ppm (Phytophthora infestans): ≥ 80%

COC(=O)Nc1ccc(-c2cnc3ccc(C(=O)N(CS(C)(=O)=O)c4ccc(F)c(OC)c4)cn23)cn1 [Compound 92, methyl N-[5-[6-[(4-fluoro-3-methoxy-phenyl)-(methylsulfonylmethyl)carbamoyl]imidazo[1,2-a]pyridin-3-yl]-2-pyridyl] carbamate]
inhibition at 20 ppm (Pythium ultimum): ≥ 80% | pest or weed control at 200 ppm (Phytophthora infestans): ≥ 80%

CNC(=O)CN(C(=O)c1ccc2ncc(-c3ccc(NC(=O)OC)nc3)n2c1)c1ccc(F)c(OC)c1 [Compound 97, methyl N-[5-[6-[(4-fluoro-3-methoxy-phenyl)-[2-(methylamino)-2-oxo-ethyl]carbamoyl]imidazo[1,2-a]pyridin-3-yl]-2-pyridyl]carbamate]
inhibition at 20 ppm (Pythium ultimum): ≥ 80% | pest or weed control at 200 ppm (Phytophthora infestans): ≥ 80%

CONC(=O)Nc1ccc(-c2cnc3ccc(C(=O)N(C)c4ccc(F)c(OC)c4)cn23)cn1 [Compound 99]
inhibition at 20 ppm (Pythium ultimum): ≥ 80% | pest or weed control at 200 ppm (Phytophthora infestans): ≥ 80%

COC(=O)Nc1ccc(-c2cnc3ccc(C(=O)N(c4ccc(F)cc4)C4CCC4)cn23)cn1 [Compound 109, methyl N-[5-[6-[cyclobutyl-(4-fluorophenyl)carbamoyl]imidazo [1,2-a]pyridin-3-yl]-2-pyridyl]carbamate]
inhibition at 20 ppm (Pythium ultimum): ≥ 80% | pest or weed control at 200 ppm (Phytophthora infestans): ≥ 80%

CNC(=O)c1cccc(N(C)C(=O)c2ccc3ncc(-c4ccc(NC(=O)OC)nc4)n3c2)c1 [Compound 115, methyl N-[5-[6-[methyl-[3-(methylcarbamoyl)phenyl]carbamoyl]imidazo[1,2-a]pyridin-3-yl]-2-pyridyl]carbamate]
inhibition at 20 ppm (Pythium ultimum): ≥ 80% | pest or weed control at 200 ppm (Phytophthora infestans): ≥ 80%

CCN(C(=O)c1ccc2ncc(-c3ccc(NC(=O)OC)nc3)n2c1)c1ccc(OC)c(OC)c1 [Compound 119, methyl N-[5-[6-[(3,4-dimethoxyphenyl)-ethyl-carbamoyl]imidazo[1,2-a]pyridin-3-yl]-2-pyridyl]carbamate]
pest or weed control at 200 ppm (Phytophthora infestans): ≥ 80%

CCOCCN(C(=O)c1ccc2ncc(-c3ccc(NC(=O)OC)nc3)n2c1)c1ccc(Cl)cc1 [Compound 123, methyl N-[5-[6-[(4-chlorophenyl)-(2-ethoxyethyl)carbamoyl]imidazo[1,2-a]pyridin-3-yl]-2-pyridyl]carbamate]
inhibition at 20 ppm (Pythium ultimum): ≥ 80% | pest or weed control at 200 ppm (Phytophthora infestans): ≥ 80%

COC(=O)Nc1ccc(-c2cnc3ccc(C(=O)N(CCC#N)c4ccc(Cl)cc4)cn23)cn1 [Compound 128, methyl N-[5-[6-[(4-chlorophenyl)-(2-cyanoethyl)carbamoyl]imidazo[1,2-a]pyridin-3-yl]-2-pyridyl]carbamate]
inhibition at 20 ppm (Pythium ultimum): ≥ 80% | pest or weed control at 200 ppm (Phytophthora infestans): ≥ 80%

CCN(C(=O)c1ccc2ncc(-c3ccc(NC(=O)OC)nc3)n2c1)c1ccc(Cl)cc1 [Compound 129, methyl N-[5-[6-[(4-chlorophenyl)-ethyl-carbamoyl]imidazo[1,2-a]pyridin-3-yl]-2-pyridyl]carbamate]
inhibition at 20 ppm (Pythium ultimum): ≥ 80% | pest or weed control at 200 ppm (Phytophthora infestans): ≥ 80%

COC(=O)Nc1ccc(-c2cnc3ccc(C(=O)N(CCC#N)c4cccc(C)c4)cn23)cn1 [Compound 130, methyl N-[5-[6-[2-cyanoethyl(m-tolyl)carbamoyl]imidazo [1,2-a]pyridin-3-yl]-2-pyridyl]carbamate]
inhibition at 20 ppm (Pythium ultimum): ≥ 80% | pest or weed control at 200 ppm (Phytophthora infestans): ≥ 80%

COC(=O)Nc1ccc(-c2cnc3ccc(C(=O)N(CCC#N)c4ccc(F)cc4)cn23)cn1 [Compound 132, methyl N-[5-[6-[2-cyanoethyl-(4-fluorophenyl)carbamoyl]imidazo [1,2-a]pyridin-3-yl]-2-pyridyl]carbamate]
inhibition at 20 ppm (Pythium ultimum): ≥ 80% | pest or weed control at 200 ppm (Phytophthora infestans): ≥ 80%

COC(=O)Nc1ccc(-c2cnc3ccc(C(=O)N(CC(C)C)c4ccccc4)cn23)cn1 [Compound 134, methyl N-[5-[6-[isobutyl(phenyl)carbamoyl]imidazo[1,2-a]pyridin-3-yl]-2-pyridyl]carbamate]
pest or weed control at 200 ppm (Phytophthora infestans): ≥ 80%

COC(=O)Nc1ccc(-c2cnc3ccc(C(=O)N(c4ccc(F)cc4)C(C)C)cn23)cn1 [Compound 140, methyl N-[5-[6-[(4-fluorophenyl)-isopropyl-carbamoyl]imidazo[1,2-a]pyridin-3-yl]-2-pyridyl]carbamate]
inhibition at 20 ppm (Pythium ultimum): ≥ 80% | pest or weed control at 200 ppm (Phytophthora infestans): ≥ 80%

CCOC(=O)CN(C(=O)c1ccc2ncc(-c3ccc(NC(=O)OC)nc3)n2c1)c1ccc(F)cc1 [Compound 150, ethyl 2-(4-fluoro-N-[3-[6-(methoxy-carbonylamino)-3-pyridyl]imidazo[1,2-a]pyridine-6-carbonyl]anilino)acetate]
inhibition at 20 ppm (Pythium ultimum): ≥ 80%

CN(C(=O)c1ccc2ncc(-c3ccc(NC(=O)C4CC4)nc3)n2c1)c1ccc(F)cc1 [Compound 165, 3-[6-(cyclo-propanecarbonylamino)-3-pyridyl]-N-(4-fluorophenyl)-N-methyl-imidazo[1,2-a]pyridine-6-carboxamide]
inhibition at 20 ppm (Pythium ultimum): ≥ 80%

CCC(=O)Nc1ccc(-c2cnc3ccc(C(=O)N(C)c4ccc(F)cc4)cn23)cn1 [Compound 166, N-(4-fluorophenyl)-N-methyl-3-[6-(propanoylamino)-3-pyridyl]imidazo[1,2-a]pyridine-6-carboxamide]
inhibition at 20 ppm (Pythium ultimum): ≥ 80%

CC(=O)Nc1ccc(-c2cnc3c(C)cc(C(=O)N(C)c4ccc(F)cc4)cn23)cn1 [Compound 168, 3-(6-acetamido-3-pyridyl)-N-(4-fluorophenyl)-N,8-dimethyl-imidazo[1,2-a]pyridine-6-carboxamide]
inhibition at 20 ppm (Pythium ultimum): ≥ 80% | pest or weed control at 200 ppm (Phytophthora infestans): ≥ 80%

CCOC(=O)c1cc(N(C)C(=O)c2ccc3ncc(-c4ccc(NC(=O)OC)nc4)n3c2)ccc1F [Compound 176, ethyl 2-fluoro-5-[[3-[6-(methoxy-carbonylamino)-3-pyridyl]imidazo[1,2-a]pyridine-6-carbonyl]-methyl-amino]benzoate]
inhibition at 20 ppm (Pythium ultimum): ≥ 80%
